Measured values published in patent US20230101273A1, “MESOIONIC INSECTICIDES” (FMC Corporation, priority 2020, published 2023).
Where a name gives a salt, the structure may show the parent alone.

Experiments:
[1] = system: cotton melon aphid (Aphis gossypii (Glover)); assay: Test F: control of cotton melon aphid through contact and/or systemic means; assay type: in vivo; conditions: 144 h, sprayed at 50 ppm, 6 days, okra plant
Description: (§1) Test compounds were formulated using a solution containing 10% acetone, 90% water and 300 ppm Activator 900 non-ionic surfactant (Loveland Products, Loveland, Colo., USA). The formulated compounds were applied in 1 mL of liquid through an atomizer nozzle positioned 1.27 cm (0.5 inches) above the top of each test unit. Test compounds were sprayed at the rates indicated, and each test was replicated three times.
[…] This was pre-infested with 30-40 insects on a piece of leaf according to the cut-leaf method, and the soil of the test unit was covered with a layer of sand.
Test compounds were formulated and sprayed at 50 ppm. After spraying, the test units were maintained in a growth chamber for 6 days at 19° C. and 70% relative humidity. Each test unit was then visually assessed for insect mortality.

[2] = system: potato leafhopper (Empoasca fabae (Harris)); assay: Test D: control of potato leafhopper through contact and/or systemic means; assay type: in vivo; conditions: 144 h, sprayed at 50 ppm, 6 days, adults on Soleil bean plant
Description: as §1
For evaluating control of potato leafhopper (Empoasca fabae (Harris)) through contact and/or systemic means, the test unit consisted of a small open container with a 5-6-day-old Soleil bean plant (primary leaves emerged) inside. White sand was added to the top of the soil, and one of the primary leaves was excised prior to application of the test compound.
Test compounds were formulated and sprayed at 50 ppm. After spraying of the formulated test compound, the test units were allowed to dry for 1 hour before they were post-infested with 5 potato leafhoppers (18-to-21-day-old adults). A black, screened cap was placed on the top of the test unit, and the test units were held for 6 days in a growth chamber at 20° C. and 70% relative humidity. Each test unit was then visually assessed for insect mortality.

[3] = system: corn planthopper (Peregrinus maidis (Ashmead)); assay: Test C: control of corn planthopper through contact and/or systemic means; assay type: in vivo; conditions: 144 h, sprayed at 50 ppm, 6 days, nymphs on corn plant
Description: as §1
For evaluating control of corn planthopper (Peregrinus maidis (Ashmead)) through contact and/or systemic means, the test unit consisted of a small open container with a 3-4-day-old corn (maize) plant inside. White sand was added to the top of the soil prior to application of the test compound.
Test compounds were formulated and sprayed at 50 ppm. After spraying of the formulated test compound, the test units were allowed to dry for 1 h before they were post-infested with ˜15-20 nymphs (18-to-21-day-old). A black, screened cap was placed on the top of each test unit, and the test units were held for 6 days in a growth chamber at 22-24° C. and 50-70% relative humidity. Each test unit was then visually assessed for insect mortality.

[4] = system: green peach aphid (Myzus persicae (Sulzer)); assay: Test E: control of green peach aphid through contact and/or systemic means; assay type: in vivo; conditions: 144 h, sprayed at 50 ppm, 6 days, radish plant
Description: as §1
For evaluating control of green peach aphid (Myzus persicae (Sulzer)) through contact and/or systemic means, the test unit consisted of a small open container with a 12-15-day-old radish plant inside. This was pre-infested by placing on a leaf of the test plant 30-40 aphids on a piece of leaf excised from a culture plant (cut-leaf method). The aphids moved onto the test plant as the leaf piece desiccated. After pre-infestation, the soil of the test unit was covered with a layer of sand.
Test compounds were formulated and sprayed at 50 ppm. After spraying of the formulated test compound, each test unit was allowed to dry for 1 hour and then a black, screened cap was placed on top. The test units were held for 6 days in a growth chamber at 19-21° C. and 50-70% relative humidity. Each test unit was then visually assessed for insect mortality.

| Structure (SMILES) | mortality at 50 ppm [1] [%] | mortality at 50 ppm [2] [%] | melting point [°C] | mortality at 50 ppm [3] [%] | mortality at 50 ppm [4] [%] |
| --- | --- | --- | --- | --- | --- |
| Cc1cccn2c(=O)c(-c3cc(Cl)cc(C#Cc4ccccc4)c3)c([O-])[n+](Cc3cnc(Cl)s3)c12 [Compound 47] | ≥ 80 | ≥ 80 |  |  |  |
| Cc1cccn2c(=O)c(-c3cc(C#CC(C)C)cc(C(F)(F)F)c3)c([O-])[n+](Cc3cnc(Cl)s3)c12 [Compound 26] |  | ≥ 80 |  |  |  |
| CCOc1cc(C#CC(C)C)cc(-c2c([O-])[n+](Cc3cnc(Cl)s3)c3c(C)cccn3c2=O)c1 (as salt: salt) [Compound 54, 1-[(2-chloro-5-thiazolyl)methyl]-3-[3-ethoxy-5-(3-methyl-1-butyn-1-yl)phenyl]-2-hydroxy-9-methyl-4-oxo-4H-pyrido[1,2-a]pyrimidinium inner salt] |  |  | 90 to 97 |  |  |
| Cc1cccn2c(=O)c(-c3cccc(C#CC4CC4)c3)c([O-])[n+](Cc3cnc(Cl)s3)c12 [Compound 37, 1-[(2-chloro-5-thiazolyl)methyl]-3-[3-(2-cyclopropylethynyl)phenyl]-2-hydroxy-9-methyl-4-oxo-4H-pyrido[1,2-a]pyrimidinium inner salt] | ≥ 80 | ≥ 80 |  | ≥ 80 | ≥ 80 |
| CC#Cc1cccc(-c2c([O-])[n+](Cc3cnc(Cl)s3)c3c(C)cccn3c2=O)c1 [Compound 61] | ≥ 80 | ≥ 80 |  | ≥ 80 |  |
| COc1cc(C#CC2CC2)cc(-c2c([O-])[n+](Cc3cnc(Cl)s3)c3c(C)cccn3c2=O)c1 [Compound 4, 1-[(2-chloro-5-thiazolyl)methyl]-3-[3-(2-cyclopropylethynyl)-5-methoxyphenyl]-2-hydroxy-9-methyl-4-oxo-4H-pyrido[1,2-a]pyrimidinium inner salt] | ≥ 80 | ≥ 80 |  | ≥ 80 | ≥ 80 |
| CCC#Cc1cc(Cl)cc(-c2c([O-])[n+](Cc3cnc(Cl)s3)c3c(C)cccn3c2=O)c1 [Compound 1, 3-[3-(1-butyn-1-yl)-5-chlorophenyl]-1-[(2-chloro-5-thiazolyl)methyl]-2-hydroxy-9-methyl-4-oxo-4H-pyrido[1,2-a]pyrimidinium inner salt] | ≥ 80 |  |  | ≥ 80 | ≥ 80 |
| Cc1cccn2c(=O)c(-c3cc(Cl)cc(C#CC4CC4)c3)c([O-])[n+](Cc3cnc(Cl)s3)c12 [Compound 35] | ≥ 80 |  |  |  | ≥ 80 |
| CCC#Cc1cccc(-c2c([O-])[n+](Cc3cnc(Cl)s3)c3c(C)cccn3c2=O)c1 [Compound 2, 3-[3-(1-butyn-1-yl)phenyl]-1-[(2-chloro-5-thiazolyl)methyl]-2-hydroxy-9-methyl-4-oxo-4H-pyrido[1,2-a]pyrimidinium inner salt] | ≥ 80 |  |  | ≥ 80 | ≥ 80 |
| Cc1cccn2c(=O)c(-c3cc(F)cc(C#CC4CC4)c3)c([O-])[n+](Cc3cnc(Cl)s3)c12 [Compound 29] |  |  |  |  | ≥ 80 |
| Cc1cc(C#CC(C)C)cc(-c2c([O-])[n+](Cc3cnc(Cl)s3)c3c(C)cccn3c2=O)c1 [Compound 7, 1-[(2-chloro-5-thiazolyl)methyl]-2-hydroxy-9-methyl-3-[3-methyl-5-(3-methyl-1-butyn-1-yl)phenyl]-4-oxo-4H-pyrido[1,2-a]pyrimidinium inner salt] | ≥ 80 | ≥ 80 |  | ≥ 80 | ≥ 80 |
| Cc1cccn2c(=O)c(-c3cc(C#CC4CC4)cc(C(C)C)c3)c([O-])[n+](Cc3cnc(Cl)s3)c12 [Compound 14] | ≥ 80 |  |  |  | ≥ 80 |
| Cc1cccn2c(=O)c(-c3cccc(C#CC(C)C)c3)c([O-])[n+](Cc3cnc(Cl)s3)c12 [Compound 44, 1-[(2-chloro-5-thiazolyl)methyl]-2-hydroxy-9-methyl-3-[3-(3-methyl-1-butyn-1-yl)phenyl]-4-oxo-4H-pyrido[1,2-a]pyrimidinium inner salt] | ≥ 80 | ≥ 80 |  | ≥ 80 | ≥ 80 |
| Cc1cccn2c(=O)c(-c3cc(F)cc(C#CC(C)C)c3)c([O-])[n+](Cc3cnc(Cl)s3)c12 [Compound 21] | ≥ 80 | ≥ 80 |  |  | ≥ 80 |
| Cc1cc(C#CC2CC2)cc(-c2c([O-])[n+](Cc3cnc(Cl)s3)c3c(C)cccn3c2=O)c1 [Compound 11, 1-[(2-chloro-5-thiazolyl)methyl]-3-[3-(2-cyclopropylethynyl)-5-methylphenyl]-2-hydroxy-9-methyl-4-oxo-4H-pyrido[1,2-a]pyrimidinium inner salt] | ≥ 80 | ≥ 80 |  | ≥ 80 | ≥ 80 |
| Cc1ccc(-c2c([O-])[n+](Cc3cnc(Cl)s3)c3c(C)cccn3c2=O)cc1C#CC(C)C [Compound 86] | ≥ 80 | ≥ 80 |  | ≥ 80 | ≥ 80 |
| COc1cc(C#CC(C)C)cc(-c2c([O-])[n+](Cc3cnc(Cl)s3)c3c(C)cccn3c2=O)c1 [Compound 18] | ≥ 80 |  |  |  | ≥ 80 |
| CCOc1cc(C#CC2CC2)cc(-c2c([O-])[n+](Cc3cnc(Cl)s3)c3c(C)cccn3c2=O)c1 [Compound 51, 1-[(2-chloro-5-thiazolyl)methyl]-3-[3-(2-cyclopropylethynyl)-5-ethoxyphenyl]-2-hydroxy-9-methyl-4-oxo-4H-pyrido[1,2-a]pyrimidinium inner salt] | ≥ 80 |  |  | ≥ 80 | ≥ 80 |
